Here are results for one compound from patent publication US20070203244A1, “INHIBITORS OF MEMBRANE TYPE-1 MATRIX METALLOPROTEINASE FOR THE TREATMENT OF INSULIN-DEPENDENT DIABETES MELLITUS” (priority 2006, published 2007).

In series [1] the test system is IS-CD8+ T cells. The series is described as follows: Homing of DiI-labeled IS-CD8+ T cells into the pancreatic islets of NOD mice. In kind it is in vivo. The note with it: 24 h. As to the method:
Fluorescent Tracing and Morphometric Analysis—For trafficking studies, IS-CD8^+ T cells were incubated at 1×10^7 cells/ml for 30 min at 37° C. in the dark in complete Click's medium containing 5% fetal calf serum and 0.0075 mg/ml of the fluorescent dye 1,1′-didodecyl-3,3,3′,3′-tetramethylindocarbocyanine perchlorate (DiI; Molecular Probes, Eugene, Oreg.). After incubation, the cells were washed three times with phosphatebuffered saline to remove excess DiI. Labeled IS-CD8^+ cells (1×10^7 cells) were injected intravenously in 0.2 ml of phosphate-buffered saline into irradiated (725 rads, 24 h in advance) NOD mice. Mice were sacrificed 24 h after injection of DiI-labeled cells. The spleen and the pancreata were excised and fixed in 0.1 M periodate-lysine-paraformaldehyde phosphate buffer. The organs were next sucrose-saturated, freeze-molded in OCT compound (Sakura Finetek Inc., Torrance, Calif.), and freeze-sectioned. 7-μm-thick cryostat sections of the entire pancreas were prepared at 60-μm intervals using a Leica CM1900 cryotom. Distribution of DiI-labeled CD8^+ cells within the islets was examined using a fluorescent microscope. At least 100 individual islets per mouse (4-5 mice/experimental group) were examined. The characteristic morphology of the islets is easily identified on the cryosections. DiI-labeled cells were counted within the area relevant to each individual islet (see FIG. 3 for a representative image; the islet-relevant area is depicted by the solid white line, and the islet boundaries are shown by the white dotted line). The position of each IS-CD8^+ labeled cell was determined relative to the islet boundary. The labeled cells localized within the islet boundary were considered to be “inside,” whereas the labeled cells adjacent to the islet but outside of the islet boundary were considered to be “at the entrance.” This method has been described in substantial detail (Savinov, A. Y., et al. (2003), and Savinov, A. Y., et al. (2001), which are herein incorporated by reference in their entirety for their teaching of these methods).
Fluorescent tracing and morphometric analysis—For trafficking studies, IS-CD8^+ T cells were incubated at 1×10^7 cells/ml for 30 min at 37° C. in the dark in the complete Click's medium containing 5% FCS and 0.0075 mg/ml of fluorescent dye 1,1′-didodecyl-3,3,3′,3′-tetramethylindocarbocyanine perchlorate (DiI; Molecular Probes). After incubation, the cells were washed three times with PBS to remove excess DiI. Labeled IS-CD8^+ cells (1×10^7 cells) were intravenously injected in 0.2 ml of PBS into irradiated (725 Rad, 24 h in advance) NOD mice. Mice were sacrificed 24 h after injection of DiI-labeled cells. […] In 24 h, the spleen and the pancreata were excised and fixed in 0.1 M periodate-lysine-paraformaldehyde phosphate buffer. The organs were next sucrose-saturated, freeze-molded in OCT compound (Sakura Finetek Inc.) and freeze-sectioned. 7-μm-thick cryostat sections of the entire pancreas were prepared at the 60 μm intervals using a Leica CM1900 cryotom. Distribution of DiI-labeled CD8^+ cells within the islets was examined using a fluorescent microscope. At least 100 individual islets per mouse, 4-5 mice per each experimental group, were examined. The characteristic morphology of the islets is easily identified on the cryosections. DiI-labeled cells were counted within the area relevant to each individual islet. The position of each IS-CD8^+ labeled cell was determined relative to the islet boundary. […]

The subject of series [2] is NOD mice. The series is described as follows: Adoptively transferred diabetes in NOD mice (IS-CD8+ cells). In kind it is in vivo. As to the method: IS-CD8^+ cells were labeled with DiI and then injected in NOD mice. In 24 h, the labeled cells with their intra-islet location were counted in the cryostat sections of the entire pancreas. […] IS-CD8^+ cells were injected in NOD mice. […] PBS containing […] DMSO was used as a vehicle control. The onset of diabetes was monitored daily by measuring urine glucose levels with the Diastix reagent strips. Mice with urine glucose levels of ≧2000 mg/dl for 3 consecutive days were considered diabetic. * and **, p=0.02 and p=0.015 by Fisher's test, respectively.
Mice were monitored for 21 days. […] The onset of diabetes was identified by assessing urine glucose levels with Diastix® strips (Bayer). Mice with urine glucose levels of >2000 mg/dl for 3 consecutive days were considered diabetic. […] The level of glucose in the urine closely follows that in the blood (Traisman, H. S., and Greenwood, R. D. (1973)). The measurement of glucose in urine is a widely accepted method to follow the development of diabetes in NOD mice (Pomerleau, D. P., et al. (2005)).

The conditions of series [3]: continuous oral dosing, cited from earlier work.
The target in series [4] is MT1-MMP. The note with it: cited from earlier work.

With `CC1(C)SCCN(S(=O)(=O)c2ccc(Oc3ccncc3)cc2)[C@H]1C(=O)NO` [AG3340], the “IS-CD8+ cells found inside the islets” value in series [1] (Example 1: cells co-incubated 2 h with AG3340 50 μM before injection) is on record as “smaller number of cells”. Also, the “reduction in the T cell homing” value in series [1] (Example 2: AG3340 1 mg/kg i.v. 30 min before cells) was found to be 50%. In series [1] (Example 3: inhibitor i.p. before cells, SB-3CT and EGCG at much higher concentrations than AG3340), the “homing of IS-CD8+ cells inside the islets” value is listed as “several-fold less cells”. Besides, the “delay of the onset of diabetes compared with the control” value in series [2] (Example 1: cells co-incubated with AG3340, 1 mg/kg i.p. on days 0, 2, 4, 6, 8, 10) was approximately 2 fold. In addition, the “delay of the onset of diabetes compared to the control” value in series [2] (Example 3: 1 mg/kg i.p. 30 min prior to cells, then every other day) is “approximately 2 fold”. Also, in series [3] (2 to 100 mg/day in two doses per day), the “dose inducing musculoskeletal effects that required dose discontinuation in more than half of the subjects” value is “above 25 mg/day”. Also, the severe dose-limiting toxicity entry in series [3] (2 to 100 mg/day) is listed as “did not result in severe dose-limiting toxicity”. In addition, the “Ki for MT1-MMP” value in series [4] is given as “sub-nanomolar”.
